Laboratory results taken from PMC6199744, “Development of Chemical Proteomics for the Folateome and Analysis of the Kinetoplastid Folateome” (ACS Infectious Diseases, 2018).
Like-named read-outs stand apart in the source and are kept apart here.

Assays:
Assay type in all cases: binding
[1] = target: T1, HeLa cell extract proteins (Homo sapiens, UniProt O00231)
T1 construct: endogenous in cells; host or cells: HeLa cell extract

[2] = target: T2, HeLa cell extract proteins (Homo sapiens, UniProt P14174)
T2 construct: endogenous in cells; host or cells: HeLa cell extract
T2 sequence (P14174 1-115): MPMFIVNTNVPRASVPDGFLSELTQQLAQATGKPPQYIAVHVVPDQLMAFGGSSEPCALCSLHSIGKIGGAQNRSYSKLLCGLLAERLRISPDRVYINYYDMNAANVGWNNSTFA

[3] = target: T3, HeLa cell extract proteins (Homo sapiens, UniProt Q9NNW5)
T3 construct: endogenous in cells; host or cells: HeLa cell extract
T3 sequence (Q9NNW5 1-1121): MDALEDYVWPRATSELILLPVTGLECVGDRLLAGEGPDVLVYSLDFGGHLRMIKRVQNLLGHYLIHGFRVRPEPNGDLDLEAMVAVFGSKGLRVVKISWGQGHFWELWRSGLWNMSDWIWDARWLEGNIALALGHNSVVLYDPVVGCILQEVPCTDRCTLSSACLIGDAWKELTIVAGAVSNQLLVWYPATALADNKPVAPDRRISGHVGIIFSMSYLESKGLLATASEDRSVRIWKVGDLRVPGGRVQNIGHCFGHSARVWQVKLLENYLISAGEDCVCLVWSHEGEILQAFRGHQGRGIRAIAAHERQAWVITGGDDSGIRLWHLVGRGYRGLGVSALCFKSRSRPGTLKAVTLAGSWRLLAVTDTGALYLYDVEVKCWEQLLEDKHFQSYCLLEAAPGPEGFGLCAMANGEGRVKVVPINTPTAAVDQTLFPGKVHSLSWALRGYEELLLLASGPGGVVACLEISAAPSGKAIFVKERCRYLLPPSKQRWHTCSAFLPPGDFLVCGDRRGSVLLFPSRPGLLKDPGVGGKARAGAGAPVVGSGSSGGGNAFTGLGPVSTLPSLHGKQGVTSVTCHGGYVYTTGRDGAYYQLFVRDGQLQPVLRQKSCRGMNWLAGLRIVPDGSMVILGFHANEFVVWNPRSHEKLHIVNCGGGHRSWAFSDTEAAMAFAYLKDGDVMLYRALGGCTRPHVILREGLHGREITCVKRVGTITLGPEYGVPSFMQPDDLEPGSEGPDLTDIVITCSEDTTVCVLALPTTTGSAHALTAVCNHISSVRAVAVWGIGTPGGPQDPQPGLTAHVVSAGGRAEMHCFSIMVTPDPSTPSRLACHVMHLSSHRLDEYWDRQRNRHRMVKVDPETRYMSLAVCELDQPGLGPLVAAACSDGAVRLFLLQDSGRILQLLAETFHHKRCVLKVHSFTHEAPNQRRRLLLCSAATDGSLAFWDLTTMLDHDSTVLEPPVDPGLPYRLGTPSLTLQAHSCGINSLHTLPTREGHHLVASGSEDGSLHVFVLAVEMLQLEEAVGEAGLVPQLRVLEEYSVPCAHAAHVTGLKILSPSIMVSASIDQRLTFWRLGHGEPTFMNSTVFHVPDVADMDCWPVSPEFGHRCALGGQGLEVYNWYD

[4] = target: T4, HeLa cell extract proteins (Homo sapiens, UniProt O00165); conditions: captured protein HAX1; HeLa
T4 construct: endogenous in cells; host or cells: HeLa cell extract

[5] = target: T5, HeLa cell extract proteins (Homo sapiens, UniProt Q8WUX1); conditions: HeLa; protein SLC38A5
T5 construct: endogenous in cells; host or cells: HeLa cell extract

[6] = target: T6, HeLa cell extract proteins (Homo sapiens, UniProt P46976); conditions: protein GYG1; HeLa
T6 construct: endogenous in cells; host or cells: HeLa cell extract
T6 sequence (P46976 1-350): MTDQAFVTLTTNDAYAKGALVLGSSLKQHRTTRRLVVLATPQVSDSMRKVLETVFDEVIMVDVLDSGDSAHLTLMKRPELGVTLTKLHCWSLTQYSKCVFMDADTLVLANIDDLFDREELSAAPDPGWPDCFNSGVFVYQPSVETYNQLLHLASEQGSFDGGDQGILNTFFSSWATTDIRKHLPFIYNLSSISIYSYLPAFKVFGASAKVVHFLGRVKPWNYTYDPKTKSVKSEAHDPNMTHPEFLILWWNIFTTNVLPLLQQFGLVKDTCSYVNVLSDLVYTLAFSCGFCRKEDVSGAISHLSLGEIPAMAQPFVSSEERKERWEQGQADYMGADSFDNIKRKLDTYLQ

[7] = target: T7, HeLa cell extract proteins (Homo sapiens, UniProt Q16795); conditions: captured protein NDUFA9; HeLa
T7 construct: endogenous in cells; host or cells: HeLa cell extract

[8] = target: T8, HeLa cell extract proteins (Homo sapiens, UniProt P00390); conditions: protein GSR; HeLa
T8 construct: endogenous in cells; host or cells: HeLa cell extract
T8 sequence (P00390 44-522): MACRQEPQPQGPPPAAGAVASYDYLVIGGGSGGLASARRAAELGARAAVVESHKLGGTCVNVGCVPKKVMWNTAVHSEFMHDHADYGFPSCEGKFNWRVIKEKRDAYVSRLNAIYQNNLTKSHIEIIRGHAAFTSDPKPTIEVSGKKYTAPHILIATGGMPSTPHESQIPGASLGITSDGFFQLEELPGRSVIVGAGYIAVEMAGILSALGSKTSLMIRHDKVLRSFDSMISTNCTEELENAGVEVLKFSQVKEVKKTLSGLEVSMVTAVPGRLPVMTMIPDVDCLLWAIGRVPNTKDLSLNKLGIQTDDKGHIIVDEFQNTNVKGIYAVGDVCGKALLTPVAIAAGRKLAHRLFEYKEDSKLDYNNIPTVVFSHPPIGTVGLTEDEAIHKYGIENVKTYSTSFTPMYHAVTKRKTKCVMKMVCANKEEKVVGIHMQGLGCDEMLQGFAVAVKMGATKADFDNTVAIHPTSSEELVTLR

[9] = HeLa, protein LOC284889 (MACROPHAGE MIGRATION INHIBITORY FACTOR)

T7 sequence (Q16795 36-377): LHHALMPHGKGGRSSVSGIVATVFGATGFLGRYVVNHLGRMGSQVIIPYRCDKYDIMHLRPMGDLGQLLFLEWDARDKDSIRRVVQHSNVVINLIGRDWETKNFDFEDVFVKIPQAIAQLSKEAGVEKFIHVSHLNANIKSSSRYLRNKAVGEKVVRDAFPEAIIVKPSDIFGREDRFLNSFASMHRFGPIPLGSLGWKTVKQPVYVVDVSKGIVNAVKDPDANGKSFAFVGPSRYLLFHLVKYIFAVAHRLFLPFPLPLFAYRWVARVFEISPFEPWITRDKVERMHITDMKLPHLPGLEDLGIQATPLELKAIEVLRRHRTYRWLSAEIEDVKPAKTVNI
T4 sequence (O00165 whole entry): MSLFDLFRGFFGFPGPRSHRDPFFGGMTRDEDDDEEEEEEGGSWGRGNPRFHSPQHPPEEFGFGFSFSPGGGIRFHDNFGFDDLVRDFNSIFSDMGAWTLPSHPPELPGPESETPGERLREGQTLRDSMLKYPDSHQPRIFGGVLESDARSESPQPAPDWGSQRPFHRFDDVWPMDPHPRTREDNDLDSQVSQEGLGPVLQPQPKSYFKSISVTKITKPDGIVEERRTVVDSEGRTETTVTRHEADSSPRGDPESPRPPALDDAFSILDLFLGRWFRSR
T5 sequence (Q8WUX1 whole entry): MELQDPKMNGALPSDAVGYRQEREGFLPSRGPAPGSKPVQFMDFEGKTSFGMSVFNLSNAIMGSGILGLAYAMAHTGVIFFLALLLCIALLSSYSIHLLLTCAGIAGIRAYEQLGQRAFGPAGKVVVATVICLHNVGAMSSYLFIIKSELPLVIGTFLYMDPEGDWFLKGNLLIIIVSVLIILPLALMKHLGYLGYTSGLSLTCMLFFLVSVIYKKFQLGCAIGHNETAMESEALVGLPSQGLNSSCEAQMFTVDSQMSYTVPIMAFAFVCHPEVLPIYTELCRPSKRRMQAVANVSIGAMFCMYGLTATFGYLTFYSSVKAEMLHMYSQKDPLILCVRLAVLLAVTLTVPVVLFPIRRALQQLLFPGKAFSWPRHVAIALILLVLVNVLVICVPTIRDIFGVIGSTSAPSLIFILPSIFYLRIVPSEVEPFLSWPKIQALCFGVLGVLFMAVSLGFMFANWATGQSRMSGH
T1 sequence (O00231 whole entry): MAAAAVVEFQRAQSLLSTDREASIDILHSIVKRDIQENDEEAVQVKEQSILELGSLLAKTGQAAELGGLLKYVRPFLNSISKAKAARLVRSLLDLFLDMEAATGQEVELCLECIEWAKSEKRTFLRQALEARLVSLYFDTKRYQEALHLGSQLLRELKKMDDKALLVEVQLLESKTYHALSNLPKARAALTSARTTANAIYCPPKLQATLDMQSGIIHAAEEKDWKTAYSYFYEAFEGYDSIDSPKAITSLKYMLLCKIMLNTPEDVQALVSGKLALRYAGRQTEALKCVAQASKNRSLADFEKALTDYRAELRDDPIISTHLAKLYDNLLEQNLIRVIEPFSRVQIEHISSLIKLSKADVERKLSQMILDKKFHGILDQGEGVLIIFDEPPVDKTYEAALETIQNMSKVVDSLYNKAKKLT

Row | Compound | fold changes relative to vehicle control ([1]; protein PSMD11, HeLa) | fold changes relative to vehicle control [2, 9] | fold changes relative to vehicle control ([3]; HeLa, protein WDR6) | fold changes relative to vehicle control [1] | fold changes relative to vehicle control [2] | fold changes relative to vehicle control [3] | fold changes relative to vehicle control [4] | fold changes relative to vehicle control [5] | fold changes relative to vehicle control [6] | fold changes relative to vehicle control [7] | fold changes relative to vehicle control [8]
1 | Nc1nc2c(c(=O)[nH]1)N(C=O)C(CNc1ccc(C(=O)N[C@@H](CCC(=O)O)C(=O)O)cc1)CN2 (stereo partly drawn) [LEU, leucovorin] | 1.03 | 1.32 | 0.96 | – | – | – | – | – | – | – | –
2 | Nc1nc2[nH]cc(CCc3ccc(C(=O)N[C@@H](CCC(=O)O)C(=O)O)cc3)c2c(=O)[nH]1 [PTX, pemetrexed] | – | – | – | 1.02 | 1.29 | 1.1 | – | – | – | – | –
3 | CCCCCCOc1ccc(Cc2cnc(N)nc2N)cc1 [compound 1] | – | – | – | – | – | – | 0.92 | 0.91 | 1.09 | 1.01 | 0.94
4 | CCCCCCOc1cccc(Cc2cnc(N)nc2N)c1 [compound 2] | – | – | – | – | – | – | 1.1 | 1.14 | 1.31 | 0.87 | 1.15
5 | Nc1nc2cccc(-c3ccccc3)c2n1Cc1ccc(Cl)c(Cl)c1 [compound 3] | – | – | – | – | – | – | 1.13 | 0.95 | 0.95 | 1.04 | 1
6 | NCCOCCOCC(=O)Nc1nc2ncc(CNc3ccc(C(=O)NC(CCC(=O)O)C(=O)O)cc3)nc2c(=O)[nH]1 (stereo not drawn) [compound 6] | 1.11 | 1.26 | 1.19 | – | – | – | – | – | – | – | –
7 | NCCCNc1ccc(C(=O)NC(CCC(=O)O)C(=O)O)cc1 (stereo not drawn) [compound 7] | 0.9 | 1.25 | 1.06 | – | – | – | – | – | – | – | –
